Measured values as given in ChEMBL document CHEMBL2157867, “2-(4-Chlorophenyl)-2-oxoethyl 4-benzamidobenzoate derivatives, a novel class of SENP1 inhibitors: Virtual screening, synthesis and biological evaluation” (Bioorg Med Chem Lett, 2012).

Each compound was assayed against T1, Sentrin-specific protease 1 (Homo sapiens, UniProt Q9P0U3) (assay: Inhibition of recombinant His-tagged SENP1 catalytic domain expressed in Escherichia coli BL21(DE3) using His-tagged deltaRanGAP-SUMO2 as substrate incubated for 10 mins prior to substrate addition measured after 45 mins by SDS-PAGE analysis).
T1 sequence (Q9P0U3 whole entry): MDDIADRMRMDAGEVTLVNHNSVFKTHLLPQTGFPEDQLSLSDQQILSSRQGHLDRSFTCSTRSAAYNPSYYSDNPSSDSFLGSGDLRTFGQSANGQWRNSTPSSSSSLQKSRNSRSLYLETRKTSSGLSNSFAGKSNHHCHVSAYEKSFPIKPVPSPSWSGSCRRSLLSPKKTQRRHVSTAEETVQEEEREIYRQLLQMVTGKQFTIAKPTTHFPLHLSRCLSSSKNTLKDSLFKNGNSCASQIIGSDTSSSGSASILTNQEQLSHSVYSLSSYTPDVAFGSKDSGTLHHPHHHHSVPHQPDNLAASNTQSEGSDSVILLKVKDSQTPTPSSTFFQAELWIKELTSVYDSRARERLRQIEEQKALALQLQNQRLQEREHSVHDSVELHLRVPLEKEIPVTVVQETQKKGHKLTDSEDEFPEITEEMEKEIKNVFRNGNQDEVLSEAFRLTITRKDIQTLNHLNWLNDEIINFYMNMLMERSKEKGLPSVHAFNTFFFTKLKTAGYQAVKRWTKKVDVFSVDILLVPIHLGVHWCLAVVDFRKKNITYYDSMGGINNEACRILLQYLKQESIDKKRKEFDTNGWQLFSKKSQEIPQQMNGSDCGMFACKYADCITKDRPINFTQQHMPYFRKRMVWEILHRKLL

| Compound | IC50 [µM] |
| --- | --- |
| O=C(COC(=O)c1ccc(NC(=O)c2cccc(O)c2)cc1)c1ccc(Cl)cc1 | > 50 |
| Nc1cccc(C(=O)Nc2ccc(C(=O)OCC(=O)c3ccc(Cl)cc3)cc2)c1 | > 50 |
| COc1ccc(C(=O)Nc2ccc(C(=O)OCC(=O)c3ccc(Cl)cc3)cc2)cc1OC | > 50 |
| CCOc1ccc(C(=O)Nc2ccc(C(=O)OCC(=O)c3ccc(Cl)cc3)cc2)cc1OCC | > 50 |
